Assay results: ChEMBL document CHEMBL1201862, “PubChem BioAssay data set” (2004)
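Briefly, cells in 96-well plates were exposed to five compound concentrations for 48 h, and endpoints were estimated by linear interpolation. Abbreviation: GI50, concentration required for 50% inhibition of growth.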 The source made the active and inactive calls. Cut-off read from the data, not from the text of the source: active = GI50 up to about 1.1 µM and inactive = higher.

Columns and labels:
Test in all cases: DTP human tumour cell line panel, 48 h
DU-145 = test system: DU-145
UACC-62 = test system: UACC-62
MDA-MB-435 = test system: MDA-MB-435
HL-60 = test system: HL-60
TK-10 = test system: TK-10
K562 = test system: K562
SK-MEL-28 = test system: SK-MEL-28
NCI/ADR-RES = test system: NCI/ADR-RES
HCC 2998 = test system: HCC 2998
A549 = test system: A549
IGROV-1 = test system: IGROV-1
U-251 = test system: U-251
CAKI-1 = test system: CAKI-1
Hs-578T = test system: Hs-578T
OVCAR-3 = test system: OVCAR-3
A498 = test system: A498
MDA-MB-231 = test system: MDA-MB-231
SW-620 = test system: SW-620
HCT-116 = test system: HCT-116
COLO 205 = test system: COLO 205
HT-29 = test system: HT-29
SNB-75 = test system: SNB-75
SK-OV-3 = test system: SK-OV-3
OVCAR-5 = test system: OVCAR-5
SF-268 = test system: SF-268
KM12 = test system: KM12
OVCAR-4 = test system: OVCAR-4
BT-549 = test system: BT-549
RXF 393 = test system: RXF 393
PC-3 = test system: PC-3
MCF7 = test system: MCF7
OVCAR-8 = test system: OVCAR-8
SN12C = test system: SN12C
786-0 = test system: 786-0
NCI-H460 = test system: NCI-H460
EKVX = test system: EKVX
MOLT-4 = test system: MOLT-4
RPMI-8226 = test system: RPMI-8226
M14 = test system: M14
HOP-92 = test system: HOP-92
MDA-N = test system: MDA-N
HCT-15 = test system: HCT-15
ACHN = test system: ACHN
UACC-257 = test system: UACC-257
HOP-62 = test system: HOP-62
SK-MEL-2 = test system: SK-MEL-2
CCRF-CEM = test system: CCRF-CEM
NCI-H23 = test system: NCI-H23
SNB-19 = test system: SNB-19
T47D = test system: T47D
SF-539 = test system: SF-539
SF-295 = test system: SF-295
SR = test system: SR
SK-MEL-5 = test system: SK-MEL-5
NCI-H226 = test system: NCI-H226
NCI-H522 = test system: NCI-H522
LOX IMVI = test system: LOX IMVI
Malme-3M = test system: Malme-3M
UO-31 = test system: UO-31

Measured: GI50

Nc1c(S(=O)(=O)O)cc(Nc2cccc(S(=O)(=O)/C=C/S(=O)(=O)O)c2)c2c1C(=O)c1ccccc1C2=O
> 100 µM: HCT-15
inactive: DU-145 > 100 µM | UACC-62 > 100 µM | MDA-MB-435 > 100 µM | HL-60 > 100 µM | TK-10 > 100 µM | K562 > 100 µM | SK-MEL-28 > 100 µM | NCI/ADR-RES > 100 µM | HCC 2998 > 100 µM | A549 > 100 µM | IGROV-1 > 100 µM | U-251 > 100 µM | CAKI-1 > 100 µM | Hs-578T 73.3 µM | OVCAR-3 > 100 µM | A498 > 100 µM | MDA-MB-231 > 100 µM | SW-620 > 100 µM | HCT-116 > 100 µM | COLO 205 > 100 µM | HT-29 > 100 µM | SNB-75 34.7 µM | SK-OV-3 > 100 µM | OVCAR-5 > 100 µM | SF-268 > 100 µM | KM12 > 100 µM | OVCAR-4 > 100 µM | BT-549 > 100 µM | RXF 393 14.2 µM | PC-3 > 100 µM | MCF7 > 100 µM | OVCAR-8 > 100 µM | SN12C > 100 µM | 786-0 > 100 µM | NCI-H460 > 100 µM | EKVX > 100 µM | MOLT-4 > 100 µM | RPMI-8226 > 100 µM | M14 > 100 µM | HOP-92 > 100 µM | MDA-N > 100 µM | ACHN > 100 µM | UACC-257 > 100 µM | HOP-62 > 100 µM | SK-MEL-2 > 100 µM | CCRF-CEM > 100 µM | NCI-H23 > 100 µM | SNB-19 > 100 µM | T47D > 100 µM | SF-539 > 100 µM | SF-295 > 100 µM | SR > 100 µM | SK-MEL-5 > 100 µM | NCI-H226 > 100 µM | NCI-H522 > 100 µM | LOX IMVI > 100 µM | Malme-3M > 100 µM

Cn1c2c3c(F)c(F)ccc3nc-2cc2ccccc21
1.49 µM: HCT-15
inactive: DU-145 1.34 µM | UO-31 1.36 µM | UACC-62 3.44 µM | MDA-MB-435 3.88 µM | HL-60 13 µM | K562 3.11 µM | SK-MEL-28 4.17 µM | NCI/ADR-RES 1.49 µM | HCC 2998 1.32 µM | A549 2.34 µM | IGROV-1 3.42 µM | U-251 1.58 µM | CAKI-1 2.39 µM | Hs-578T 12.2 µM | OVCAR-3 2.33 µM | MDA-MB-231 3.3 µM | SW-620 1.49 µM | COLO 205 2.08 µM | HT-29 1.52 µM | SK-OV-3 5.57 µM | OVCAR-5 1.92 µM | SF-268 3.24 µM | OVCAR-4 10.1 µM | BT-549 3 µM | RXF 393 4.05 µM | PC-3 2.85 µM | OVCAR-8 1.74 µM | EKVX 12.4 µM | M14 2.11 µM | HOP-92 4.76 µM | MDA-N 3.64 µM | UACC-257 3.83 µM | HOP-62 1.35 µM | SK-MEL-2 3.27 µM | CCRF-CEM 1.91 µM | NCI-H23 1.4 µM | SNB-19 3.79 µM | SF-539 2.06 µM | SR 2.33 µM | SK-MEL-5 3.04 µM | NCI-H226 2.59 µM | NCI-H522 3.03 µM | Malme-3M 2.7 µM
active: TK-10 0.828 µM | A498 0.443 µM | HCT-116 0.125 µM | SNB-75 0.805 µM | KM12 0.927 µM | MCF7 0.431 µM | SN12C 0.861 µM | 786-0 0.519 µM | NCI-H460 1.04 µM | MOLT-4 0.324 µM | RPMI-8226 0.711 µM | ACHN 0.583 µM | T47D 0.582 µM | SF-295 1.12 µM | LOX IMVI 1.07 µM
